Laboratory results from patent US20170157212A1, “CDK MODULATORS AND METHODS FOR THE TREATMENT OF CANCER” (Salk Institute for Biological Studies, priority 2015, published 2017).
Entries after “also recorded” stand apart in the source; their conditions may differ.

What was measured:
CDK12 = test: In vitro kinase assay: CDK12 phosphorylation of recombinant 4E-BP1 (S65, T70); format: biochemical, human; settings: reactions with CDK12 and mTORC1/Raptor, dose-dependent
Description: (A) CRIF1 and CDK12 have opposite effects on global RNAPII CTD-Ser2P levels in vivo. U2OS cells were transfected with indicated siRNAs for 48 hr, and RNAPII phosphorylation was monitored by immunoblot using phospho-specific CTD (Ser2P and Ser5P) antibodies. (B) Knockdown of CRIF1 up-regulates CHK1 expression and induction of p53. […] (C) Analysis of steady-state mRNA levels by qRT-PCR in extracts from U2OS cells exposed to control (CTL) or CRIF1-specific siRNAs, as indicated. (D) Depletion of CRIF1 enhances 4E-BP1 phosphorylation at S65 and T70 in vivo, as assessed by immunoblot using phospho-specific antibodies. (E) CRIF1 inhibits RNAPII CTD-Ser2 phosphorylation by CDK12 complexes in vitro. The human GST-CTD (52 repeat) protein was incubated in vitro with the affinity-purified HA-CDK12 kinase complex in the absence or presence of increasing levels of purified recombinant CRIF1, and analyzed by immunoblot with the indicated antisera. […] Analysis of GST-CTD Ser2 phosphorylation was carried out as described in (E), using the affinity-purified FLAG-CDK9 kinase. (G) CRIF1 inhibits 4E-BP1 phosphorylation by CDK12 in vitro. […] was monitored by immunoblot in the absence or in the presence of different levels of affinity-purified recombinant CRIF1. […]

[1] = biological target: T1, mTORC1/Raptor kinase complex (Homo sapiens, UniProt P42345); test: In vitro kinase assay: mTORC1 phosphorylation of recombinant 4E-BP1 (T37/46); format: biochemical; settings: same reactions with CDK12 and mTORC1/Raptor
T1 construct: made in house
Description: To enable priming of 4E-BP1 by mTORC1, these reactions contained both affinity-purified CDK12 and the mTORC1/Raptor kinase complexes. […] Consistent with a gain-of-function for CDK12 kinase activity in CRIF1 knockdown cells, enhanced binding of eIF4G to target mRNAs was observed (FIG. 6H, upper panel) that were identified previously by RIP-seq, with no effects on total mRNA levels (FIG. 6H, bottom panel).

CDK2 = biological target: T2, CDK2 (Homo sapiens, UniProt P24941); test: Co-immunoprecipitation of CRIF1 with CDK2; format: binding
T2 construct: endogenous in cells
Description: (§1) FIGS. 5A-5I. The Mitochondrial OX-PHOS Regulator, CRIF1, is a Novel Subunit of the Human CDK12 Kinase Complex. (A) Identification of CRIF1 as a near-stoichiometric subunit of the native CDK12 kinase complex. MudPIT analysis of CDK12 complexes from HEK293 cells that stably express HA-tagged full-length human CDK12. The HA-CDK12 complex was affinity-purified using anti-HA antibody and visualized by SDS-PAGE and silver-stain. (B) List of the identified proteins in the HA-CDK12 complex from (A). (C) Endogenous CRIF1 co-immunoprecipitates with native CDK12 in U2OS cell extracts. Shown is an immunoblot analysis of CRIF1, CCNK, and the chaperone proteins CDC37 and HSP90 in an anti-CDK12 immunoprecipitate. (D) CRIF1 is a specific subunit of the CDK12 complex. Native CRIF1 was immunoprecipitated from U2OS cells using an anti-CRIF1 antibody and analyzed by co-immunoprecipitation for association with various CDKs, as indicated. […] FLAG-CRIF1 proteins containing different C-terminal truncations were co-expressed with HA-CDK12 (aa 985-1490) and analyzed for binding by co-immunoprecipitation and immunoblot. […] Cell viability was analyzed after 72 hr. […] Expression of the mitochondrial MTCO-1 (COX1) protein was assessed using two different antisera. […] Each fraction (T; total, C:cytosolic, M:membrane/organelle, and N:nuclear) was analyzed by immunoblot using the indicated antibodies. […]

CDK8 = biological target: T3, CDK8 (Homo sapiens, UniProt P49336); test: Co-immunoprecipitation of CRIF1 with CDK8; format: binding
T3 construct: endogenous in cells
T3 sequence (P49336 whole entry): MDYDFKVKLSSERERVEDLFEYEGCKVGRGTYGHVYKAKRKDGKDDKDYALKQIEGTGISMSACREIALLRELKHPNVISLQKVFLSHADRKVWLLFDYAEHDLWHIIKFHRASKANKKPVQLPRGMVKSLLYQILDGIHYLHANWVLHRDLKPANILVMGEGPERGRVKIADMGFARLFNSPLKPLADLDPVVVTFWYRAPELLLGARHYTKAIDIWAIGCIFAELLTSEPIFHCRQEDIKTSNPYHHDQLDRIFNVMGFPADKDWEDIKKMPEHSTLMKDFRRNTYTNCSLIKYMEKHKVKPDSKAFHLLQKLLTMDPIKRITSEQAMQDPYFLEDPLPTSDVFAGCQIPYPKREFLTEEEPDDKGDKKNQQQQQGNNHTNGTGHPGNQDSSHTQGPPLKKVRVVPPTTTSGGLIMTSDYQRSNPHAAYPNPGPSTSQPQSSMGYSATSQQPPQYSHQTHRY
Description: as §1

CDK9 = biological target: T4, CDK9 (Homo sapiens, UniProt P50750); test: Co-immunoprecipitation of CRIF1 with CDK9; format: binding
T4 construct: endogenous in cells
T4 sequence (P50750 whole entry): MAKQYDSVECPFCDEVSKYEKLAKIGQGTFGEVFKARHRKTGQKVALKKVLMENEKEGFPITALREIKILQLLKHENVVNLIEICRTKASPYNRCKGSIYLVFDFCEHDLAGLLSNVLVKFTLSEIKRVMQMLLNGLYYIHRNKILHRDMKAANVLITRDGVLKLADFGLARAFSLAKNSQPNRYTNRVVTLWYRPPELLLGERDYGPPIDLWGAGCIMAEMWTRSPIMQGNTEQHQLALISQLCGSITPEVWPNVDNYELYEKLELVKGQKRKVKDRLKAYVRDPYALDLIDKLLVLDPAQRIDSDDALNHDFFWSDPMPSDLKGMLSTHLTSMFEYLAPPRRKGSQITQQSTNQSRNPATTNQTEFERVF
Description: as §1

CDK12, sequence (Q9NYV4 whole entry): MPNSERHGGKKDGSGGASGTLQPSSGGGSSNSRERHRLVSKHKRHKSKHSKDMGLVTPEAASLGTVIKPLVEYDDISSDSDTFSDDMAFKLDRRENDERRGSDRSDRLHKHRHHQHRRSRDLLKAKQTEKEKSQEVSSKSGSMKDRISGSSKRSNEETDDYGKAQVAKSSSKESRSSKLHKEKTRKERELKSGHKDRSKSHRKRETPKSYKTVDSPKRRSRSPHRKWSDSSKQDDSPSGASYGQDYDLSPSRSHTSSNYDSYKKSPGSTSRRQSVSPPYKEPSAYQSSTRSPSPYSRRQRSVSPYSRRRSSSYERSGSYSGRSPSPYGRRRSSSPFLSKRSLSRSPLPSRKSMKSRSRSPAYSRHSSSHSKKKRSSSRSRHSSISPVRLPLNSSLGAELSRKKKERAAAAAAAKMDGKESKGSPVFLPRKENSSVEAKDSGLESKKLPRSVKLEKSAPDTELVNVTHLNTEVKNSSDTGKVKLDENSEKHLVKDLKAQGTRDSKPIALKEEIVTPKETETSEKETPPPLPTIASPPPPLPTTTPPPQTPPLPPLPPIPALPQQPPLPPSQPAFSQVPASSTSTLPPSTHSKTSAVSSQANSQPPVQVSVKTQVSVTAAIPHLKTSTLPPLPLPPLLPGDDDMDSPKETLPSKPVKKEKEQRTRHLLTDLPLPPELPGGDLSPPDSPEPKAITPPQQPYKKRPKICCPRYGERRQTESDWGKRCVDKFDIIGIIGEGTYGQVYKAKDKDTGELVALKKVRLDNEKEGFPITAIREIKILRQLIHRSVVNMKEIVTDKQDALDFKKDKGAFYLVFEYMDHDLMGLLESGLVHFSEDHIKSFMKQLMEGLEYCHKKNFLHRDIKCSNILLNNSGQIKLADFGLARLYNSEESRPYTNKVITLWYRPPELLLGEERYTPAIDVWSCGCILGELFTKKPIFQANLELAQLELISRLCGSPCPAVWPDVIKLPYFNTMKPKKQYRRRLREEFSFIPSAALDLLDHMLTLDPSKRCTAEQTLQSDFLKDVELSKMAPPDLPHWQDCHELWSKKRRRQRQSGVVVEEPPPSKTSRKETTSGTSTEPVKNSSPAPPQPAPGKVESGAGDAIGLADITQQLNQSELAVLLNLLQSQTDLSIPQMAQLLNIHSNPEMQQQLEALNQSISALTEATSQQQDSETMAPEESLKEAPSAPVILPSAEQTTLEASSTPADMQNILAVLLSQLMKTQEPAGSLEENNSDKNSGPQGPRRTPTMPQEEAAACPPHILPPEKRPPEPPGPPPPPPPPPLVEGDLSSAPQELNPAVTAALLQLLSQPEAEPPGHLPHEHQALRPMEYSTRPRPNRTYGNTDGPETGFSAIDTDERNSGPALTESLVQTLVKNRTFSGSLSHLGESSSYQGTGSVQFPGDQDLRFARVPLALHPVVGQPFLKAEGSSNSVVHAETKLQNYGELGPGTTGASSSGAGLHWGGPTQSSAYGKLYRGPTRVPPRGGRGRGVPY
CDK12, sequence (O75909 whole entry partner): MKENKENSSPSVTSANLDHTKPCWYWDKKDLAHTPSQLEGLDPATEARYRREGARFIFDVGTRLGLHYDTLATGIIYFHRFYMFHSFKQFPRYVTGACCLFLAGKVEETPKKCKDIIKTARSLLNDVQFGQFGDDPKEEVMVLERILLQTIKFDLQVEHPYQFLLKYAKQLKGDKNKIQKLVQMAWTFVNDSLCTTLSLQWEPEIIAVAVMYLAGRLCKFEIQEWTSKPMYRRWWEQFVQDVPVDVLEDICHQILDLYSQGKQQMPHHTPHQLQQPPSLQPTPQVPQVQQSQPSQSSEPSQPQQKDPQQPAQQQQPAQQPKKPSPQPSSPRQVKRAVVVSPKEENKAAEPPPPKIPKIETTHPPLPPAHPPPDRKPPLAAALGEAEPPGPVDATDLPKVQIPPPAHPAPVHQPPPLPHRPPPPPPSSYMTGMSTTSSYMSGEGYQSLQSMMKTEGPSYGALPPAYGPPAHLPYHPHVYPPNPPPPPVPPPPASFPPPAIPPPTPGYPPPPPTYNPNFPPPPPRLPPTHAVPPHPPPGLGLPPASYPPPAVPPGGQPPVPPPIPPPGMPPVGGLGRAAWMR

Growth Arrest and DNA Damage-Inducible Proteins-Interacting Protein 1 [CRIF1]
S65 and T70 phosphorylation of 4E-BP1 by CDK12 (CDK12): inhibits
S65 and T70 phosphorylation of 4E-BP1 by CDK12 (CDK12; listed as rCRIF1): potently and selectively inhibited
phosphorylation of the T37/46 sites of 4E-BP1 by mTORC1 [1]: without affecting
presence in / binding to CDK2 complexes (CDK2): not present; also recorded: nor was binding to Cdk2 detected
presence in / binding to CDK8 complexes (CDK8): not present; also recorded: does not bind
presence in / binding to CDK9 complexes (CDK9): not present; also recorded: does not bind
